Measurements from ChEMBL document CHEMBL1130350, “Heteroaryl analogues of AMPA. Synthesis and quantitative structure-activity relationships” (J Med Chem, 1997).

Legend:
[1] = target: Glutamate [NMDA] receptor; assay: In vitro binding affinity against N-methyl-D-aspartate glutamate receptor using [3H]-[…] as radioligand; format: protein-complex assay
[2] = target: Glutamate receptor ionotropic AMPA (Rattus norvegicus)
Rattus norvegicus = organism: Rattus norvegicus; assay: Electrophysiological study in rat cortical slice model; format: functional
[3] = target: Glutamate receptor ionotropic kainate
Description: In vitro binding affinity against Ionotropic glutamate receptor kainate (kainic acid) using [3H]KAIN as radioligand

[4] = pKa value determined by potentiometric titrations. 4.9 is the equivalence volume; initial titrant volume is 9.7; format: physicochemical
[5] = pKa value determined by potentiometric titrations. 4.5 is the equivalence volume; initial titrant volume is 9.5; format: physicochemical
[6] = pKa value determined by potentiometric titrations. 4.6 is the equivalence volume; initial titrant volume is 9.5; format: physicochemical
[7] = pKa value determined by potentiometric titrations. 4.6 is the equivalence volume; initial titrant volume is 10.2; format: physicochemical
[8] = pKa value determined by potentiometric titrations. 5.3 is the equivalence volume; initial titrant volume is 9.8; format: physicochemical
[9] = pKa value determined by potentiometric titrations. 5.1 is the equivalence volume; initial titrant volume is 9.4; format: physicochemical
[10] = pKa value determined by potentiometric titrations. 5 is the equivalence volume; initial titrant volume is 9.7; format: physicochemical
[11] = pKa value determined by potentiometric titrations. 4.4 is the equivalence volume; initial titrant volume is 9.8; format: physicochemical
[12] = pKa value determined by potentiometric titrations. 5 is the equivalence volume; initial titrant volume is 9.6; format: physicochemical

Compound	IC50 [1] [µM]	IC50 [2] [µM]	EC50 (Rattus norvegicus) [µM]	IC50 [3] [µM]	pKa [4]	pKa [5]	pKa [7]	pKa [8]	pKa [9]	pKa [10]	pKa [6]	pKa [11]	pKa [12]
Cn1cnc(-c2onc(O)c2CC(N)C(=O)O)n1 (stereo unspecified)	> 100	0.7	11	> 100	–	–	–	–	–	–	< 2.3	–	–
Cn1ccnc1-c1onc(O)c1CC(N)C(=O)O (stereo unspecified)	> 100	> 100	> 1000	74	–	–	–	< 3.4	–	–	–	–	–
NC(Cc1c(O)noc1-c1nccs1)C(=O)O (stereo unspecified)	> 100	0.094	2.3	4.9	–	–	–	–	–	–	–	< 2	–
Cn1nnc(-c2onc(O)c2CC(N)C(=O)O)n1 (stereo unspecified)	> 100	–	0.92	41	–	–	–	–	–	–	–	–	2.9
Cc1onc(O)c1CC(N)C(=O)O [(R,S)-AMPA]	> 100	–	5.4	–	–	–	–	–	–	–	–	–	–

Now from value to molecule, other results behind:

IC50 [1] [µM]	IC50 [2] [µM]	EC50 (Rattus norvegicus) [µM]	IC50 [3] [µM]	pKa [4]	pKa [5]	pKa [7]	pKa [8]	pKa [9]	pKa [10]	Compound	pKa [6]	pKa [11]	pKa [12]
> 100	48	550	> 100	< 3.4	–	–	–	–	–	NC(Cc1c(O)noc1-c1ncc[nH]1)C(=O)O (stereo unspecified)	–	–	–
> 100	5.8	93	16	–	< 2.3	–	–	–	–	Cn1ncnc1-c1onc(O)c1CC(N)C(=O)O (stereo unspecified)	–	–	–
> 100	1.5	63	58	–	–	< 2.4	–	–	–	NC(Cc1c(O)noc1-c1nc[nH]n1)C(=O)O (stereo unspecified)	–	–	–
> 100	54	> 1000	> 100	–	–	–	–	3.7	–	Cn1nnnc1-c1onc(O)c1CC(N)C(=O)O (stereo unspecified)	–	–	–
> 100	72	> 1000	> 100	–	–	–	–	–	< 3	NC(Cc1c(O)noc1-c1nn[nH]n1)C(=O)O (stereo unspecified)	–	–	–
